Biological target: T1, Sphingomyelin phosphodiesterase 2 (Rattus norvegicus, UniProt Q9ET64)
T1 sequence (Q9ET64 whole entry): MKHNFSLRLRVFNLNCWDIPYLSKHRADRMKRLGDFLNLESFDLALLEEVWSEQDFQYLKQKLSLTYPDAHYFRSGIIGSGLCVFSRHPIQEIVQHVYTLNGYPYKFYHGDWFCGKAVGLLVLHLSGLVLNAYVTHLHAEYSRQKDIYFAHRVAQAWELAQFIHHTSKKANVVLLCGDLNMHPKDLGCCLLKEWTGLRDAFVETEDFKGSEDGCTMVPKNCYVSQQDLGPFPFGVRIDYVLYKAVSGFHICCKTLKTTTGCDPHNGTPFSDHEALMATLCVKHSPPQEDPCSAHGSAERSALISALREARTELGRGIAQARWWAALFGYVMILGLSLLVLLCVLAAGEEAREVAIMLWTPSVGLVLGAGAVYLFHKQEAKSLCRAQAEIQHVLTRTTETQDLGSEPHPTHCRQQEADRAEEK
Test: Inhibitory activity against N-SMase (neutral magnesium- dependent-sphingomyelinase) using rat brain microsomes

## CCCCCCCCCCCCCCC[C@@H](O)[C@H](COC(=O)NCc1ccncc1)NC(=O)C(C)(C)C
  IC50: > 100 µM

## CCCCCCCCCCCCC/C=C/[C@@H](O)[C@H](COC(=O)N(O)Cc1ccncc1)NC(=O)C(C)(C)C
  IC50: 21 µM

## CCCCCCCCCCCCC/C=C/[C@@H](O)[C@H](CNC(=O)NCc1ccncc1)NC(=O)C(C)(C)C
  IC50: 2.9 µM

## CCCCCCCCCCCCCCC/C=C/[C@@H](O)[C@H](COC(=O)NCc1ccncc1)NC(=O)C(C)(C)C
  IC50: 6.6 µM

## CCCCCCCCCCCCC/C=C/[C@@H](O)[C@H](COC(=O)NCc1ccncc1)NC(=O)C(C)(C)C
  IC50: 2.8 µM

## CCCCCCCCCCCCC/C=C/[C@@H](O)[C@H](CNC(=O)OCc1ccncc1)NC(=O)C(C)(C)C
  IC50: 58 µM

## CCCCCCCCCCCCC/C=C/[C@@H](O)[C@H](CNC(=S)NCc1ccncc1)NC(=O)C(C)(C)C
  IC50: 45 µM

## CCCCCCCCCC/C=C/[C@@H](O)[C@H](COC(=O)NCc1ccncc1)NC(=O)C(C)(C)C
  IC50: 6.8 µM

## CCCCCCCCCCCC[C@@H](O)[C@H](COC(=O)NCc1ccncc1)NC(=O)C(C)(C)C
  IC50: > 100 µM
